Reference: US20250025461A1, “TREATMENT OF SEVERE AND UNCOMPLICATED MALARIA” (PURDUE RESEARCH FOUDATION, priority 2021, published 2025)
Structures can show the parent of a compound that is named as a salt.

Tested on: P. falciparum malaria
Test: Phase 1/2 open-label imatinib monotherapy trial vs standard-of-care (SOC)
Format: in vivo, human
Description: Generic imatinib mesylate was purchased from TEVA Pharmaceuticals (Jerusalem, Israel) and was provided to patients in two 200 mg tablets per dose to conform with the usual quantity of imatinib indicated for treatment of chronic myelogenous leukemia. CV-Artecan, the standard-of-care (SOC) for treatment of P. falciparum malaria in Vietnam was purchased from OPC Pharmaceutical (Ho Chi Minh City, Vietnam) and was administered to patients as a tablet containing 40 mg dihydroartemisinin plus 320 mg piperaquine phosphate.
P. falciparum-infected males of age 16-55 years with no complicating co-morbidities that had not received an anti-malarial drug within the previous 4 weeks were eligible for two trials, i.e., imatinib monotherapy and imatinib plus SOC (Im+SOC) triple combination therapy. Those individuals who met eligibility criteria and provided informed written consent were enrolled in the trial.
The phase 1/2 “imatinib monotherapy trial” was an open-label trial aimed at determining the safety and tolerability of imatinib in adult male patients with uncomplicated P. falciparum malaria. Patients were randomly assigned to either a standard-of-care (SOC) control arm (n=8) in which they received 40 mg dihydroartemisinin plus 320 mg piperaquine phosphate orally twice (12 hours apart) on the first day and then once a day on the following 2 days, or an imatinib monotherapy arm (n=7) in which they received 400 mg of imatinib mesylate orally with a meal and full glass of water once a day for five days.
During both trials, patient temperatures and peripheral blood parasite levels were monitored before, during and after the trial on days 0, 1, 2, 3, 5, 7, 28, and 42. Patients were also examined for the usual symptoms of P. falciparum malaria, including fever, chills, headache, fatigue, anorexia, and mild diarrhea.
Primary endpoints for both studies were safety and tolerability. Secondary endpoints were reduction in parasitemia for the imatinib monotherapy study and both reduction in parasitemia and decline in pyrexia for the Im+SOC study. Safety and tolerability were assessed at protocol-specified time points and adverse events were classified as toxicities not normally associated with P. falciparum malaria, including edema, rashes, and severe diarrhea, etc. […] Attribution of imatinib to adverse events was assessed using a 5-point scale: not related, unlikely related, possibly related, probably related, and definitely related.
A mixed ANOVA was conducted to determine the effect of drug treatment on parasitemia and pyrexia. Post-hoc multi-comparison testing was used to determine which time points were statistically different. […] SOC treatment cohorts from each individual trial were analyzed separately. […]

Question: Which results are given for `Cc1ccc(NC(=O)c2ccc(CN3CCN(C)CC3)cc2)cc1Nc1nccc(-c2cccnc2)n1` [imatinib, imatinib mesylate]?
Answer: drug-related toxicity (analyses of blood parameters and body temperatures) (400 mg imatinib orally once a day for five days): no evidence of drug-related toxicity; participants who experienced a rise in parasitemia and had to be transferred to SOC (imatinib alone, n=7): two of the seven; apparent accelerated decrease in pyrexia vs SOC (mixed ANOVA, FIG. 1D) (p-value=0.7029): did not achieve statistical significance; number of parasitized cells per microliter of blood (FIG. 1A) (peripheral blood, before, during and after treatment, n=7): decrease
